# ChEMBL document CHEMBL3885881, “DrugMatrix”
# Organism: Rattus norvegicus
# Assay: DrugMatrix - Regimen: Daily Repeat
# Format: toxicity, organism-based, Sprague-Dawley
# Design: regimen Daily Repeat, gender Male, age 6-8 weeks
# Settings: in vivo, po, route oral GAVAGE, vehicle 100 % WATER; for ABSOLUTE BASOPHIL / ABSOLUTE EOSINOPHIL / ABSOLUTE LYMPHOCYTE / ABSOLUTE MONOCYTE / ABSOLUTE SEGMENTED NEUTROPHIL / BASOPHIL / EOSINOPHIL / ERYTHROCYTE COUNT / HEMATOCRIT / HEMOGLOBIN / LEUKOCYTE COUNT / LYMPHOCYTE / MEAN CORPUSCULAR HEMOGLOBIN / MEAN CORPUSCULAR HEMOGLOBIN CONCENTRATION / MEAN CORPUSCULAR VOLUME / MONOCYTE / NEUTROPHIL / NUCLEATED RED BLOOD CELLS / PLATELET COUNT: tissue Blood; for ALANINE AMINOTRANSFERASE / ALBUMIN / ALKALINE PHOSPHATASE / ASPARTATE AMINOTRANSFERASE / BLOOD UREA NITROGEN / CARBON DIOXIDE / CHLORIDE / CHOLESTEROL / CREATINE PHOSPHOKINASE / CREATININE / GLUCOSE / LACTATE DEHYDROGENASE / LIPASE / PHOSPHORUS / POTASSIUM / SODIUM / TOTAL BILIRUBIN / TOTAL PROTEIN / URIC ACID: tissue Plasma
# [1] = 0 mg/kg, 72 h, dose level Control, time 3 day
# [2] = 0 mg/kg, 120 h, dose level Control, time 5 day
# [3] = 14 mg/kg, 72 h, dose level Low, time 3 day
compound,measurement,setting,value
C[C@H]1c2cccc(O)c2C(=O)C2=C(O)[C@]3(O)C(=O)C(C(N)=O)=C(O)[C@@H](N(C)C)[C@@H]3[C@@H](O)[C@@H]21.O [DOXYCYCLINE],ABSOLUTE BASOPHIL,[1],0 CELLS/uL
same,ABSOLUTE EOSINOPHIL,[1],86.33 CELLS/uL
same,ABSOLUTE LYMPHOCYTE,[1],12090.17 CELLS/uL
same,ABSOLUTE MONOCYTE,[1],166.67 CELLS/uL
same,ABSOLUTE SEGMENTED NEUTROPHIL,[1],1090.17 CELLS/uL
same,BASOPHIL,[1],0%
same,EOSINOPHIL,[1],0.67%
same,ERYTHROCYTE COUNT,[1],5.57 x10E6/uL
same,HEMATOCRIT,[1],35.33%
same,HEMOGLOBIN,[1],13.83 G/DL
same,LEUKOCYTE COUNT,[1],13.43 x10E3/uL
same,LYMPHOCYTE,[1],89.83%
same,MEAN CORPUSCULAR HEMOGLOBIN,[1],24.88 pg
same,MEAN CORPUSCULAR HEMOGLOBIN CONCENTRATION,[1],39.15 G/DL
same,MEAN CORPUSCULAR VOLUME,[1],63.52 fL
same,MONOCYTE,[1],1.17%
same,NEUTROPHIL,[1],8.33%
same,NUCLEATED RED BLOOD CELLS,[1],0 /100WBC
same,PLATELET COUNT,[1],1181.33 x10E3/uL
same,ALANINE AMINOTRANSFERASE,[1],48.33 u/L
same,ALBUMIN,[1],4.1 G/DL
same,ALKALINE PHOSPHATASE,[1],395 u/L
same,ASPARTATE AMINOTRANSFERASE,[1],81.83 u/L
same,BLOOD UREA NITROGEN,[1],15.83 mg/dL
same,CARBON DIOXIDE,[1],24.17 mmol/L
same,CHLORIDE,[1],103.83 MEQ/L
same,CHOLESTEROL,[1],63.67 mg/dL
same,CREATINE PHOSPHOKINASE,[1],372.83 u/L
same,CREATININE,[1],0.18 mg/dL
same,GLUCOSE,[1],173.83 mg/dL
same,LACTATE DEHYDROGENASE,[1],188.33 u/L
same,LIPASE,[1],9.5 u/L
same,PHOSPHORUS,[1],11.95 mg/dL
same,POTASSIUM,[1],5.99 MEQ/L
same,SODIUM,[1],144.43 MEQ/L
same,TOTAL BILIRUBIN,[1],0.15 mg/dL
same,TOTAL PROTEIN,[1],5.95 G/DL
same,URIC ACID,[1],1.82 mg/dL
same,ABSOLUTE BASOPHIL,[2],0 CELLS/uL
same,ABSOLUTE EOSINOPHIL,[2],26.67 CELLS/uL
same,ABSOLUTE LYMPHOCYTE,[2],7583.83 CELLS/uL
same,ABSOLUTE MONOCYTE,[2],131.33 CELLS/uL
same,ABSOLUTE SEGMENTED NEUTROPHIL,[2],674.83 CELLS/uL
same,BASOPHIL,[2],0%
same,EOSINOPHIL,[2],0.33%
same,ERYTHROCYTE COUNT,[2],5.78 x10E6/uL
same,HEMATOCRIT,[2],36.48%
same,HEMOGLOBIN,[2],14.03 G/DL
same,LEUKOCYTE COUNT,[2],8.42 x10E3/uL
same,LYMPHOCYTE,[2],89.83%
same,MEAN CORPUSCULAR HEMOGLOBIN,[2],24.3 pg
same,MEAN CORPUSCULAR HEMOGLOBIN CONCENTRATION,[2],38.52 G/DL
same,MEAN CORPUSCULAR VOLUME,[2],63.15 fL
same,MONOCYTE,[2],1.67%
same,NEUTROPHIL,[2],8.17%
same,NUCLEATED RED BLOOD CELLS,[2],0 /100WBC
same,PLATELET COUNT,[2],1186.67 x10E3/uL
same,ALANINE AMINOTRANSFERASE,[2],50.17 u/L
same,ALBUMIN,[2],4.07 G/DL
same,ALKALINE PHOSPHATASE,[2],367.5 u/L
same,ASPARTATE AMINOTRANSFERASE,[2],81.67 u/L
same,BLOOD UREA NITROGEN,[2],16.17 mg/dL
same,CARBON DIOXIDE,[2],32.33 mmol/L
same,CHLORIDE,[2],101.5 MEQ/L
same,CHOLESTEROL,[2],65.33 mg/dL
same,CREATINE PHOSPHOKINASE,[2],255.33 u/L
same,CREATININE,[2],0.17 mg/dL
same,GLUCOSE,[2],139.33 mg/dL
same,LACTATE DEHYDROGENASE,[2],95 u/L
same,LIPASE,[2],10.5 u/L
same,PHOSPHORUS,[2],10.38 mg/dL
same,POTASSIUM,[2],6.11 MEQ/L
same,SODIUM,[2],145.55 MEQ/L
same,TOTAL BILIRUBIN,[2],0.17 mg/dL
same,TOTAL PROTEIN,[2],5.98 G/DL
same,URIC ACID,[2],0.93 mg/dL
same,ABSOLUTE BASOPHIL,[3],0 CELLS/uL
same,ABSOLUTE EOSINOPHIL,[3],116.33 CELLS/uL
same,ABSOLUTE LYMPHOCYTE,[3],13980 CELLS/uL
same,ABSOLUTE MONOCYTE,[3],147.67 CELLS/uL
same,ABSOLUTE SEGMENTED NEUTROPHIL,[3],1122.67 CELLS/uL
same,BASOPHIL,[3],0%
same,EOSINOPHIL,[3],0.67%
same,ERYTHROCYTE COUNT,[3],5.35 x10E6/uL
same,HEMATOCRIT,[3],33.67%
same,HEMOGLOBIN,[3],13.37 G/DL
same,LEUKOCYTE COUNT,[3],15.37 x10E3/uL
same,LYMPHOCYTE,[3],90.33%
same,MEAN CORPUSCULAR HEMOGLOBIN,[3],25 pg
same,MEAN CORPUSCULAR HEMOGLOBIN CONCENTRATION,[3],39.73 G/DL
same,MEAN CORPUSCULAR VOLUME,[3],62.97 fL
same,MONOCYTE,[3],1%
same,NEUTROPHIL,[3],8%
same,NUCLEATED RED BLOOD CELLS,[3],0 /100WBC
same,PLATELET COUNT,[3],1183 x10E3/uL
same,ALANINE AMINOTRANSFERASE,[3],54 u/L
same,ALBUMIN,[3],3.97 G/DL
same,ALKALINE PHOSPHATASE,[3],325.67 u/L
same,ASPARTATE AMINOTRANSFERASE,[3],90 u/L
same,BLOOD UREA NITROGEN,[3],18 mg/dL
same,CARBON DIOXIDE,[3],24.33 mmol/L
same,CHLORIDE,[3],103.67 MEQ/L
same,CHOLESTEROL,[3],61.33 mg/dL
same,CREATINE PHOSPHOKINASE,[3],372 u/L
same,CREATININE,[3],0.12 mg/dL
same,GLUCOSE,[3],163.33 mg/dL
same,LACTATE DEHYDROGENASE,[3],339 u/L
same,LIPASE,[3],8.67 u/L
same,PHOSPHORUS,[3],11.87 mg/dL
same,POTASSIUM,[3],5.76 MEQ/L
same,SODIUM,[3],143.73 MEQ/L
same,TOTAL BILIRUBIN,[3],0.2 mg/dL
same,TOTAL PROTEIN,[3],5.77 G/DL
same,URIC ACID,[3],1.13 mg/dL
